Values of other authors, collected in patent US10092188B2, “Methods and compositions for identifying subjects at risk of developing stent thrombosis” (VisEn Medical, Inc., priority 2008, dated 2018).

Absorbance max (absorbance maximum of commercially available fluorochrome): 675 nm | εmax (extinction coefficient of commercially available fluorochrome): 250,000 M^−1cm^−1
Substance: CY™ 5.5
